Measured values as given in patent EP1969935A1, “3.4-disubstituted phenoxy phenylamidines and their use as fungicides” (Bayer CropScience AG, priority 2007, dated 2008).

Assays:
logP determination = assay type: physicochemical; details: pH 2.3; given in the preparation examples; read-out: log P (pH2.3)
Podosphaera leucotricha = test: Podosphaera test (apple) / protective; assay type: in vivo; details: 100ppm active ingredient, apple plants sprayed protectively, evaluated 10 days after inoculation; 0% = control, 100% = no infestation
Text: Beispiel 1: Podosphaera-Test (Apfel) / protektiv
(§1) Zur Herstellung einer zweckmäßigen Wirkstoffzubereitung vermischt man 1 Gewichtsteil Wirkstoff mit den angegebenen Mengen Lösungsmittel und Emulgator und verdünnt das Konzentrat mit Wasser auf die gewünschte Konzentration.
(§2) Zur Prüfung auf protektive Wirksamkeit werden junge Pflanzen mit der Wirkstoffzubereitung in der angegebenen Aufwandmenge besprüht. Nach Antrocknen des Spritzbelages werden die Pflanzen mit einer wäßrigen Sporensuspension des Apfelmehltauerregers Podosphaera leucotricha inokuliert. Die Pflanzen werden dann im Gewächshaus bei ca. 23°C und einer relativen Luftfeuchtigkeit von ca. 70% aufgestellt.
(§3) 10 Tage nach der Inokulation erfolgt die Auswertung. Dabei bedeutet 0% ein Wirkungsgrad, der demjenigen der Kontrolle entspricht, während ein Wirkungsgrad von 100% bedeutet, daß kein Befall beobachtet wird.

Sphaerotheca fuliginea = test: Sphaerotheca test (cucumber) / protective; assay type: in vivo; details: 100ppm active ingredient, cucumber plants sprayed protectively, evaluated 7 days after inoculation; 0% = control, 100% = no infestation
Text: Beispiel 2: Sphaerotheca-Test (Gurke) / protektiv
as §1
as §2, with “von Sphaerotheca fuliginea” for “des Apfelmehltauerregers Podosphaera leucotricha”, “dann” for “dann im Gewächshaus”, “70% im Gewächshaus” for “70%”
7 Tage nach der Inokulation erfolgt die Auswertung. Dabei bedeutet 0% ein Wirkungsgrad, der demjenigen der Kontrolle entspricht, während ein Wirkungsgrad von 100% bedeutet, daß kein Befall beobachtet wird.

Uromyces appendiculatus = test: Uromyces test (bean) / protective; assay type: in vivo; details: 10ppm active ingredient, bean plants sprayed protectively, evaluated 10 days after inoculation; 0% = control, 100% = no infestation
Text: In diesem Test zeigen die erfindungsgemäßen Verbindungen 10, 11, 12 und 13 (siehe Tab.IV) bei einer Konzentration an Wirkstoff von 100ppm einen Wirkungsgrad von 70% oder mehr. Beispiel 3: Uromyces - Test (Bohne) / protektiv
as §1
Zur Prüfung auf protektive Wirksamkeit werden junge Pflanzen mit der Wirkstoffzubereitung in der angegebenen Aufwandmenge besprüht. Nach Antrocknen des Spritzbelages werden die Pflanzen mit einer wäßrigen Sporensuspension des Bohnenrosterregers Uromyces appendiculatus inokuliert und verbleiben dann 1 Tag bei ca. 20°C und 100% relativer Luftfeuchtigkeit in einer Inkubations-kabine.
Die Pflanzen werden dann im Gewächshaus bei ca. 21°C und einer relativen Luftfeuchtigkeit von ca. 90% aufgestellt.
as §3

[1] = test system: Erysiphe graminis f.sp. hordei; test: Erysiphe test (barley) / protective; assay type: in vivo; details: 1000 ppm active ingredient, barley plants sprayed protectively, evaluated 7 days after inoculation; 0% = control, 100% = no infestation
Text: Beispiel 4: Erysiphe-Test (Gerste) / protektiv
as §1
Zur Prüfung auf protektive Wirksamkeit besprüht man junge Pflanzen mit der Wirkstoffzubereitung in der angegebenen Aufwandmenge.
Nach Antrocknen des Spritzbelages werden die Pflanzen mit Sporen von Erysiphe graminis f.sp. hordei bestäubt.
Die Pflanzen werden in einem Gewächshaus bei einer Temperatur von ca. 20°C und einer relativen Luftfeuchtigkeit von ca. 80 % aufgestellt, um die Entwicklung von Mehltaupusteln zu begünstigen.
7 Tage nach der Inokulation erfolgt die Auswertung. Dabei bedeutet 0 % ein Wirkungsgrad, der demjenigen der Kontrolle entspricht, während ein Wirkungsgrad von 100 % bedeutet, daß kein Befall beobachtet wird.

Alternaria solani = test: Alternaria test (tomato) / protective; assay type: in vivo; details: 500ppm active ingredient, tomato plants sprayed protectively, inoculated 1 day after treatment, evaluated 7 days after inoculation; 0% = control, 100% = no infestation
Text: Beispiel 5: Alternaria-Test (Tomate) / protektiv
as §1
Zur Prüfung auf protektive Wirksamkeit bespritzt man junge Tomatenpflanzen mit der Wirkstoffzubereitung in der angegebenen Aufwandmenge. 1 Tag nach der Behandlung werden die Pflanzen mit einer Sporensuspension von Alternaria solani inokuliert und stehen dann 24h bei 100% rel. Feuchte und 20°C. Anschließend stehen die Pflanzen bei 96% rel. Luftfeuchtigkeit und einer Temperatur von 20 °C.
7 Tage nach der Inokulation erfolgt die Auswertung. Dabei bedeutet 0 % ein Wirkungsgrad, der demjenigen der Kontrolle entspricht, während ein Wirkungsgrad von 100 % bedeutet, dass kein Befall beobachtet wird.

| SMILES | logD (logP determination) | Wirkungsgrad (Podosphaera leucotricha) [%] | Wirkungsgrad (Sphaerotheca fuliginea) [%] | Wirkungsgrad (Uromyces appendiculatus) [%] | Wirkungsgrad [1] [%] | Wirkungsgrad (Alternaria solani) [%] |
| --- | --- | --- | --- | --- | --- | --- |
| Cc1cc([N+](=O)[O-])c(C)cc1Oc1ccc2c(c1)CCCC2 [4-(5,6,7,8-Tetrahydro-2-napthoxy)-2,5-dimethylnitrobenzol] | 5.86 |  |  |  |  |  |
| CCN(C)C=Nc1cc(C)c(Oc2ccc3c(c2)CCCC3)cc1C [Verbindung 13, N-E-thyl-N-methyl-N'-[4-(5,6,7,8-tetrahydro-2-napthoxy)-2,5-dimethylphenyl]form-amidin] |  | ≥ 70 | ≥ 70 | ≥ 70 | ≥ 70 | ≥ 70 |
| Cc1cc(Oc2ccc3c(c2)CCCC3)c(C)cc1N [4-(5,6,7,8-Tetrahydro-2-napthoxy)-2,5-dimethylanilin] | 3.08 |  |  |  |  |  |
